Experimental data published in patent US8952024B2, “Herbicidal pyrimidone derivatives” (E I du Pont de Nemours and Company, priority 2009, dated 2015).

Experiments:
Experiment in all cases: Test D pre-/postemergence plant response
Type in all cases: in vivo
[1] = tested on: Russian thistle (Salsola kali); settings: scale 0 to 100
How it was run: (§1)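 Each species was planted in mixed loam and sand, treated either before emergence or at the 1- to 4-leaf stage, then kept under glass for 14 to 21 days. Plant response was scored by eye from 0 to 100 relative to controls; a dash marks no result.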

[2] = tested on: barnyardgrass (Echinochloa crus-galli)
How it was run: as §1

[3] = tested on: bluegrass (annual bluegrass, Poa annua)
How it was run: as §1

[4] = tested on: dallisgrass (Paspalum dilatatum)
How it was run: as §1

[5] = tested on: goosegrass (Eleusine indica)
How it was run: as §1

[6] = tested on: green foxtail (Setaria viridis)
How it was run: as §1

[7] = tested on: guineagrass (Panicum maximum)
How it was run: as §1

[8] = tested on: itchgrass (Rottboellia cochinchinensis)
How it was run: as §1

[9] = tested on: johnsongrass (Sorghum halepense)
How it was run: as §1

[10] = tested on: mallow (common mallow, Malva sylvestris)
How it was run: as §1

[11] = tested on: nutsedge (purple nutsedge, Cyperus rotundus)
How it was run: as §1

[12] = tested on: purslane (common purslane, Portulaca oleracea)
How it was run: as §1

[13] = tested on: quackgrass (Elytrigia repens)
How it was run: as §1

[14] = tested on: ragweed (common ragweed, Ambrosia elatior)
How it was run: as §1

[15] = tested on: signalgrass (broadleaf signalgrass, Brachiaria platyphylla)
How it was run: as §1

[16] = tested on: sowthistle (common sowthistle, Sonchus oleraceous)
How it was run: as §1

[17] = Postemergence, 16 g ai/ha, scale 0 to 100
[18] = Postemergence, 31 g ai/ha, scale 0 to 100 (0 no effect, 100 complete control)
[19] = Postemergence, 125 g ai/ha, scale 0 to 100 (0 no effect, 100 complete control)
[20] = Postemergence, 62 g ai/ha, scale 0 to 100 (0 no effect, 100 complete control)
[21] = Preemergence, 16 g ai/ha, scale 0 to 100, 0 no effect, 100 complete control
[22] = Preemergence, 31 g ai/ha, scale 0 to 100 (0 no effect, 100 complete control)
[23] = Preemergence, 62 g ai/ha, scale 0 to 100
[24] = Preemergence, 125 g ai/ha, scale 0 to 100
[25] = Postemergence, 31 g ai/ha, scale 0 to 100

Cc1ccc(F)c(-n2c(-c3ccccc3)ncc(C(=O)C3=C(O)CCCC3=O)c2=O)c1 [Compound 51]
Plant response rating, Russian Thistle ([1]; Postemergence, 16 g ai/ha): 0 | Plant response rating, Russian Thistle ([1]; Preemergence, 125 g ai/ha): 75 | Plant response rating, Barnyardgrass [2, 17]: 65 | Plant response rating, Barnyardgrass [2, 18]: 70 | Plant response rating, Barnyardgrass [2, 19]: 70 | Plant response rating, Barnyardgrass [2, 20]: 70 | Plant response rating, Barnyardgrass [2, 21]: 0 | Plant response rating, Barnyardgrass [2, 22]: 0 | Plant response rating, Barnyardgrass [2, 23]: 0 | Plant response rating, Barnyardgrass [2, 24]: 10 | Plant response rating, Bluegrass [3, 17]: 0 | Plant response rating, Bluegrass [3, 18]: 0 | Plant response rating, Bluegrass [3, 19]: 0 | Plant response rating, Bluegrass [3, 20]: 0 | Plant response rating, Bluegrass [3, 21]: 0 | Plant response rating, Bluegrass [3, 22]: 0 | Plant response rating, Bluegrass [3, 23]: 0 | Plant response rating, Bluegrass [3, 24]: 0 | Plant response rating, Dallisgrass [4, 17]: 20 | Plant response rating, Dallisgrass [4, 25]: 20 | Plant response rating, Dallisgrass [4, 19]: 70 | Plant response rating, Dallisgrass [4, 20]: 30 | Plant response rating, Dallisgrass [4, 21]: 0 | Plant response rating, Dallisgrass [4, 22]: 10 | Plant response rating, Dallisgrass [4, 23]: 10 | Plant response rating, Dallisgrass [4, 24]: 90 | Plant response rating, Goosegrass [5, 17]: 35 | Plant response rating, Goosegrass [5, 25]: 65 | Plant response rating, Goosegrass [5, 19]: 65 | Plant response rating, Goosegrass [5, 20]: 65 | Plant response rating, Goosegrass [5, 21]: 20 | Plant response rating, Goosegrass [5, 22]: 20 | Plant response rating, Goosegrass [5, 23]: 40 | Plant response rating, Goosegrass [5, 24]: 40 | Plant response rating, Foxtail, Green [6, 17]: 10 | Plant response rating, Foxtail, Green [6, 25]: 20 | Plant response rating, Foxtail, Green [6, 19]: 65 | Plant response rating, Foxtail, Green [6, 20]: 40 | Plant response rating, Foxtail, Green [6, 21]: 0 | Plant response rating, Foxtail, Green [6, 22]: 0 | Plant response rating, Foxtail, Green [6, 23]: 0 | Plant response rating, Foxtail, Green [6, 24]: 0 | Plant response rating, Guineagrass [7, 17]: 20 | Plant response rating, Guineagrass [7, 25]: 30 | Plant response rating, Guineagrass [7, 19]: 50 | Plant response rating, Guineagrass [7, 20]: 30 | Plant response rating, Guineagrass [7, 21]: 0 | Plant response rating, Guineagrass [7, 22]: 0 | Plant response rating, Guineagrass [7, 23]: 0 | Plant response rating, Guineagrass [7, 24]: 75 | Plant response rating, Itchgrass [8, 17]: 0 | Plant response rating, Itchgrass [8, 25]: 20 | Plant response rating, Itchgrass [8, 19]: 80 | Plant response rating, Itchgrass [8, 20]: 40 | Plant response rating, Itchgrass [8, 21]: 0 | Plant response rating, Itchgrass [8, 22]: 0 | Plant response rating, Itchgrass [8, 23]: 0 | Plant response rating, Itchgrass [8, 24]: 0 | Plant response rating, Johnsongrass [9, 17]: 20 | Plant response rating, Johnsongrass [9, 25]: 35 | Plant response rating, Johnsongrass [9, 19]: 70 | Plant response rating, Johnsongrass [9, 20]: 60 | Plant response rating, Johnsongrass [9, 21]: 0 | Plant response rating, Johnsongrass [9, 22]: 0 | Plant response rating, Johnsongrass [9, 23]: 20 | Plant response rating, Johnsongrass [9, 24]: 70 | Plant response rating, Mallow [10, 17]: 0 | Plant response rating, Mallow [10, 25]: 0 | Plant response rating, Mallow [10, 19]: 20 | Plant response rating, Mallow [10, 20]: 0 | Plant response rating, Mallow [10, 21]: 0 | Plant response rating, Mallow [10, 22]: 0 | Plant response rating, Mallow [10, 23]: 0 | Plant response rating, Mallow [10, 24]: 65 | Plant response rating, Nutsedge, Purple [11, 17]: 0 | Plant response rating, Nutsedge, Purple [11, 25]: 0 | Plant response rating, Nutsedge, Purple [11, 19]: 20 | Plant response rating, Nutsedge, Purple [11, 20]: 15 | Plant response rating, Nutsedge, Purple [11, 21]: 0 | Plant response rating, Nutsedge, Purple [11, 22]: 0 | Plant response rating, Nutsedge, Purple [11, 23]: 5 | Plant response rating, Nutsedge, Purple [11, 24]: 5 | Plant response rating, Purslane [12, 17]: 10 | Plant response rating, Purslane [12, 25]: 20 | Plant response rating, Purslane [12, 19]: 35 | Plant response rating, Purslane [12, 20]: 35 | Plant response rating, Purslane [12, 21]: 0 | Plant response rating, Purslane [12, 22]: 50 | Plant response rating, Purslane [12, 23]: 65 | Plant response rating, Purslane [12, 24]: 100 | Plant response rating, Quackgrass [13, 17]: 0 | Plant response rating, Quackgrass [13, 25]: 0 | Plant response rating, Quackgrass [13, 19]: 0 | Plant response rating, Quackgrass [13, 20]: 0 | Plant response rating, Quackgrass [13, 21]: 0 | Plant response rating, Quackgrass [13, 22]: 0 | Plant response rating, Quackgrass [13, 24]: 0 | Plant response rating, Ragweed [14, 17]: 60 | Plant response rating, Ragweed [14, 25]: 75 | Plant response rating, Ragweed [14, 19]: 85 | Plant response rating, Ragweed [14, 20]: 80 | Plant response rating, Ragweed [14, 21]: 35 | Plant response rating, Ragweed [14, 22]: 50 | Plant response rating, Ragweed [14, 24]: 95 | Plant response rating, Signalgrass [15, 17]: 5 | Plant response rating, Signalgrass [15, 25]: 35 | Plant response rating, Signalgrass [15, 19]: 50 | Plant response rating, Signalgrass [15, 20]: 50 | Plant response rating, Signalgrass [15, 21]: 0 | Plant response rating, Signalgrass [15, 22]: 0 | Plant response rating, Signalgrass [15, 24]: 10 | Plant response rating, Sowthistle [16, 17]: 95 | Plant response rating, Sowthistle [16, 25]: 98 | Plant response rating, Sowthistle [16, 19]: 100 | Plant response rating, Sowthistle [16, 20]: 100 | Plant response rating, Sowthistle [16, 21]: 40 | Plant response rating, Sowthistle [16, 22]: 75 | Plant response rating, Sowthistle [16, 24]: 100
